Experimental data: US20250114486A1, “MARKED FATTY ACID DERIVATIVE, PRECURSOR COMPOUND THEREOF, AND USE THEREOF IN CONTRAST AGENT” (BEIJING NORMAL UNIVERSITY, priority 2022, published 2025)

Assay: In vivo biodistribution in female Kunming mice
Settings: for Biodistribution: Large Intestine / Biodistribution: Small Intestine / Biodistribution: Stomach: unit % ID
Experimental: Female Kunming mice (20-22 g, n=3) were fasted for 12 h before the experiment, and the purified radioactive ^99mTc complex 130 was dissolved in a normal saline (containing 10% ethanol) solution (about 100 μCi/mL). Female Kunming mice were injected with 100 μL of the above solution through the tail vein, and the mice were killed by cervical dislocation at 5, 15, 30, 60, and 120 min post-injection, respectively. Blood, brain, heart, liver, spleen, lung, kidney, muscle, bone, large intestine, small intestine, stomach and tail were collected, weighed and counted, and the count distribution of each tissue and organ was calculated (unit: % ID/g, the unit of large intestine, small intestine and stomach was % ID), and the data were the mean±standard deviation of three mice in each time phase. At the same time, 100 μL of the above solution was diluted to 10 mL, which was used as the % ID without deducting the tail count.
The corresponding radioactive ^99mTc complex 158 as the typical compounds of the general formula V in this application was selected to conduct an in vivo biodistribution study in female Kunming mice. The specific experimental method was shown in the experimental method of “In vivo biodistribution study of radioactive ^99mTc complex 130 in female Kunming mice” in Example 7 above.

- Biodistribution: Blood (5 min post-injection): 0.54 ± 0.07 ID %/g
- Biodistribution: Bone (5 min post-injection): 0.54 ± 0.10 ID %/g
- Biodistribution: Brain (5 min post-injection): 0.04 ± 0.00 ID %/g
- Biodistribution: Heart (5 min post-injection): 2.14 ± 0.25 ID %/g
- Biodistribution: Kidney (5 min post-injection): 9.64 ± 0.08 ID %/g
- Biodistribution: Liver (5 min post-injection): 53.13 ± 4.86 ID %/g
- Biodistribution: Lungs (5 min post-injection): 0.84 ± 0.09 ID %/g
- Biodistribution: Muscle (5 min post-injection): 0.75 ± 0.06 ID %/g
- Biodistribution: Spleen (5 min post-injection): 0.67 ± 0.04 ID %/g
- Heart-to-Blood ratio (5 min post-injection): 3.96
- Heart-to-Liver ratio (5 min post-injection): 0.04
- Heart-to-Lungs ratio (5 min post-injection): 2.55
- Heart-to-Muscle ratio (5 min post-injection): 2.85
- Biodistribution: Large Intestine (5 min post-injection): 0.53 ± 0.10 % ID
- Biodistribution: Small Intestine (5 min post-injection): 4.32 ± 0.25 % ID
- Biodistribution: Stomach (5 min post-injection): 0.17 ± 0.02 % ID
- Biodistribution: Blood (15 min post-injection): 0.24 ± 0.01 ID %/g
- Biodistribution: Bone (15 min post-injection): 0.76 ± 0.13 ID %/g
- Biodistribution: Brain (15 min post-injection): 0.03 ± 0.01 ID %/g
- Biodistribution: Heart (15 min post-injection): 1.92 ± 0.18 ID %/g
- Biodistribution: Kidney (15 min post-injection): 7.89 ± 0.19 ID %/g
- Biodistribution: Liver (15 min post-injection): 42.04 ± 2.91 ID %/g
- Biodistribution: Lungs (15 min post-injection): 0.76 ± 0.03 ID %/g
- Biodistribution: Muscle (15 min post-injection): 0.67 ± 0.07 ID %/g
- Biodistribution: Spleen (15 min post-injection): 0.50 ± 0.03 ID %/g
- Heart-to-Blood ratio (15 min post-injection): 8.00
- Heart-to-Liver ratio (15 min post-injection): 0.05
- Heart-to-Lungs ratio (15 min post-injection): 2.53
- Heart-to-Muscle ratio (15 min post-injection): 2.87
- Biodistribution: Large Intestine (15 min post-injection): 0.82 ± 0.34 % ID
- Biodistribution: Small Intestine (15 min post-injection): 20.74 ± 0.83 % ID
- Biodistribution: Stomach (15 min post-injection): 0.26 ± 0.01 % ID
- Biodistribution: Blood (30 min post-injection): 0.12 ± 0.04 ID %/g
- Biodistribution: Bone (30 min post-injection): 0.33 ± 0.12 ID %/g
- Biodistribution: Brain (30 min post-injection): 0.02 ± 0.01 ID %/g
- Biodistribution: Heart (30 min post-injection): 1.54 ± 0.38 ID %/g
- Biodistribution: Kidney (30 min post-injection): 2.51 ± 0.58 ID %/g
- Biodistribution: Liver (30 min post-injection): 18.08 ± 0.30 ID %/g
- Biodistribution: Lungs (30 min post-injection): 0.28 ± 0.05 ID %/g
- Biodistribution: Muscle (30 min post-injection): 0.59 ± 0.16 ID %/g
- Biodistribution: Spleen (30 min post-injection): 0.31 ± 0.05 ID %/g
- Heart-to-Blood ratio (30 min post-injection): 12.83
- Heart-to-Liver ratio (30 min post-injection): 0.09
- Heart-to-Lungs ratio (30 min post-injection): 5.50
- Heart-to-Muscle ratio (30 min post-injection): 2.61
- Biodistribution: Large Intestine (30 min post-injection): 1.56 ± 0.16 % ID
- Biodistribution: Small Intestine (30 min post-injection): 29.63 ± 3.26 % ID
- Biodistribution: Stomach (30 min post-injection): 0.12 ± 0.04 % ID
- Biodistribution: Blood (60 min post-injection): 0.08 ± 0.01 ID %/g
- Biodistribution: Bone (60 min post-injection): 0.15 ± 0.03 ID %/g
- Biodistribution: Brain (60 min post-injection): 0.02 ± 0.00 ID %/g
- Biodistribution: Heart (60 min post-injection): 1.37 ± 0.26 ID %/g
- Biodistribution: Kidney (60 min post-injection): 1.20 ± 0.10 ID %/g
- Biodistribution: Liver (60 min post-injection): 15.12 ± 1.7 ID %/g
- Biodistribution: Lungs (60 min post-injection): 0.19 ± 0.01 ID %/g
- Biodistribution: Muscle (60 min post-injection): 0.43 ± 0.09 ID %/g
- Biodistribution: Spleen (60 min post-injection): 0.14 ± 0.03 ID %/g
- Heart-to-Blood ratio (60 min post-injection): 17.13
- Heart-to-Liver ratio (60 min post-injection): 0.09
- Heart-to-Lungs ratio (60 min post-injection): 7.21
- Heart-to-Muscle ratio (60 min post-injection): 3.19
- Biodistribution: Large Intestine (60 min post-injection): 16.13 ± 5.3 % ID
- Biodistribution: Small Intestine (60 min post-injection): 26.18 ± 3.9 % ID
- Biodistribution: Stomach (60 min post-injection): 0.29 ± 0.05 % ID
- Biodistribution: Blood (120 min post-injection): 0.04 ± 0.01 ID %/g
- Biodistribution: Bone (120 min post-injection): 0.09 ± 0.01 ID %/g
- Biodistribution: Brain (120 min post-injection): 0.02 ± 0.01 ID %/g
- Biodistribution: Heart (120 min post-injection): 1.27 ± 0.03 ID %/g
- Biodistribution: Kidney (120 min post-injection): 0.30 ± 0.04 ID %/g
- Biodistribution: Liver (120 min post-injection): 3.74 ± 0.98 ID %/g
- Biodistribution: Lungs (120 min post-injection): 0.19 ± 0.05 ID %/g
- Biodistribution: Muscle (120 min post-injection): 0.38 ± 0.10 ID %/g
- Biodistribution: Spleen (120 min post-injection): 0.13 ± 0.02 ID %/g
- Heart-to-Blood ratio (120 min post-injection): 31.75
- Heart-to-Liver ratio (120 min post-injection): 0.34
- Heart-to-Lungs ratio (120 min post-injection): 6.68
- Heart-to-Muscle ratio (120 min post-injection): 3.34
- Biodistribution: Large Intestine (120 min post-injection): 34.11 ± 4.52 % ID
- Biodistribution: Small Intestine (120 min post-injection): 7.50 ± 2.45 % ID
- Biodistribution: Stomach (120 min post-injection): 0.17 ± 0.12 % ID
- absolute myocardial uptake (assessment) (after tail vein injection): relatively low
SMILES: COC(C)(C)C[N+]#[C][99Tc-5]([C]#[N+]CC(C)(C)OC)([C]#[N+]CC(C)(C)OC)([C]#[N+]CC(C)(C)OC)([C]#[N+]CC(C)(C)OC)[C]#[N+]CC(C)(C)OCCCS(=O)(=O)CCCCCSCCCCC(=O)O [^99mTc complex 130]
